Assay results taken from ChEMBL document CHEMBL4177704, “Synthesis and biological evaluation of water-soluble derivatives of chiral gossypol as HIV fusion inhibitors targeting gp41” (Bioorg Med Chem Lett, 2018).
pIC50: −log10 of the molar value.

Key:
[1] = Selectivity index, ratio of CC50 for human TZM-bl cells to IC50 for HIV-1 3B infected in human TZM-bl cells; format: toxicity, cell-based; conditions: for selectivity ratio: TZM-bl cells, read-out: Ratio CC50/IC50
[2] = system: Human immunodeficiency virus 1; test: Antiviral activity against HIV-1 3B infected in human TZM-bl cells treated for 2 hrs followed by compound washout measured after 2 days by luciferase reporter assay; format: functional, organism-based
[3] = (§1) Cytotoxicity against human TZM-bl cells after 72 hrs by MTT assay; format: cell-based; conditions: TZM-bl cells
TZM = test: as §1; format: cell-based; conditions: tzm, 72 h
[4] = Human immunodeficiency virus 1, 3B, TZM-bl

SMILES: Cc1cc2c(c(O)c1-c1c(C)cc3c(c1O)/C(=C/NC(C)C(=O)NC(C)C(=O)NC(C)C(=O)[O-])C(=O)C(O)=C3C(C)C)/C(=C/NC(C)C(=O)NC(C)C(=O)NC(C)C(=O)[O-])C(=O)C(O)=C2C(C)C.[Na+].[Na+] (single isomer, unassigned; (+))
- Ratio CC50/IC50 [1]: 9.19
- pIC50 [2]: 5.19
- CC50 at 72 h [3]: 58.7 µM

SMILES: Cc1cc2c(c(O)c1-c1c(C)cc3c(c1O)/C(=C/NC(C)C(=O)NCC(=O)[O-])C(=O)C(O)=C3C(C)C)/C(=C/NC(C)C(=O)NCC(=O)[O-])C(=O)C(O)=C2C(C)C.[Na+].[Na+] (single isomer, unassigned; (+))
- Ratio CC50/IC50 [1]: 14.28
- pIC50 [2]: 5.37
- CC50 at 72 h [3]: 61.1 µM

SMILES: Cc1cc2c(c(O)c1-c1c(C)cc3c(c1O)/C(=C/NC(C)S(=O)(=O)[O-])C(=O)C(O)=C3C(C)C)/C(=C/NC(C)S(=O)(=O)[O-])C(=O)C(O)=C2C(C)C.[Na+].[Na+] (single isomer, unassigned; (+))
- Ratio CC50/IC50 [1]: 27.81
- pIC50 [2, 4]: 5.71
- CC50 at 72 h [3]: 54.8 µM

SMILES: Cc1cc2c(c(O)c1-c1c(C)cc3c(c1O)/C(=C/NC(CC(=O)[O-])C(=O)NC(C)C(=O)[O-])C(=O)C(O)=C3C(C)C)/C(=C/NC(CC(=O)[O-])C(=O)NC(C)C(=O)[O-])C(=O)C(O)=C2C(C)C.[Na+].[Na+].[Na+].[Na+] (single isomer, unassigned; (-))
- Ratio CC50/IC50 [1]: 34.1
- pIC50 [2]: 5.90
- CC50 (TZM): 42.6 µM

SMILES: Cc1cc2c(c(O)c1-c1c(C)cc3c(c1O)/C(=C/NC(C)C(=O)NC(C)C(=O)NC(C)C(=O)[O-])C(=O)C(O)=C3C(C)C)/C(=C/NC(C)C(=O)NC(C)C(=O)NC(C)C(=O)[O-])C(=O)C(O)=C2C(C)C.[Na+].[Na+] (single isomer, unassigned; (-))
- Ratio CC50/IC50 [1]: 27.19
- pIC50 [2]: 5.84
- CC50 (TZM): 39.4 µM

SMILES: Cc1cc2c(c(O)c1-c1c(C)cc3c(c1O)/C(=C/NC(C)C(=O)NCC(=O)O)C(=O)C(O)=C3C(C)C)/C(=C/NC(C)C(=O)NCC(=O)O)C(=O)C(O)=C2C(C)C (single isomer, unassigned; (-))
- selectivity ratio [1]: 25.8
- pIC50 [2]: 5.81
- CC50 (TZM): 40.3 µM

SMILES: Cc1cc2c(c(O)c1-c1c(C)cc3c(c1O)/C(=C/N[C@@H]1[C@@H](O)[C@H](O)[C@@H](CO)O[C@H]1O)C(=O)C(O)=C3C(C)C)/C(=C/N[C@@H]1[C@@H](O)[C@H](O)[C@@H](CO)O[C@H]1O)C(=O)C(O)=C2C(C)C (stereo in doubt; (+)-1b)
- Ratio CC50/IC50 [1]: 4.3
- pIC50 [2]: 5.12
- CC50 at 72 h [3]: 32.9 µM

SMILES: Cc1cc2c(c(O)c1-c1c(C)cc3c(c1O)/C(=C/NC(C)C(=O)NC(C)C(=O)[O-])C(=O)C(O)=C3C(C)C)/C(=C/NC(C)C(=O)NC(C)C(=O)[O-])C(=O)C(O)=C2C(C)C.[Na+].[Na+] (stereo in doubt; (+)-3b)
- Ratio CC50/IC50 [1]: 10.22
- pIC50 [2]: 5.24
- CC50 at 72 h [3]: 59.5 µM

SMILES: Cc1cc2c(c(O)c1-c1c(C)cc3c(c1O)/C(=C/NC(CC(=O)[O-])C(=O)NC(C)C(=O)[O-])C(=O)C(O)=C3C(C)C)/C(=C/NC(CC(=O)[O-])C(=O)NC(C)C(=O)[O-])C(=O)C(O)=C2C(C)C.[Na+].[Na+].[Na+].[Na+] (stereo in doubt; (+)-4b)
- Ratio CC50/IC50 [1]: 9.56
- pIC50 [2]: 5.27
- CC50 at 72 h [3]: 51.2 µM

SMILES: Cc1cc2c(c(O)c1-c1c(C)cc3c(c1O)/C(=C/NC(C)C(=O)NC(Cc1ccccc1)C(=O)[O-])C(=O)C(O)=C3C(C)C)/C(=C/NC(C)C(=O)NC(Cc1ccccc1)C(=O)[O-])C(=O)C(O)=C2C(C)C.[Na+].[Na+] (stereo in doubt; (+)-5b)
- Ratio CC50/IC50 [1]: 7.97
- pIC50 [2]: 5.20
- CC50 at 72 h [3]: 50.3 µM

SMILES: Cc1cc2c(c(O)c1-c1c(C)cc3c(c1O)/C(=C/NCC(=O)NCC(=O)NCC(=O)[O-])C(=O)C(O)=C3C(C)C)/C(=C/NCC(=O)NCC(=O)NCC(=O)[O-])C(=O)C(O)=C2C(C)C.[Na+].[Na+] (stereo in doubt; (+)-6b)
- Ratio CC50/IC50 [1]: 9.42
- pIC50 [2]: 5.18
- CC50 at 72 h [3]: 62.4 µM

SMILES: Cc1cc2c(c(O)c1-c1c(C)cc3c(c1O)/C(=C/N[C@@H](C)C(=O)[O-])C(=O)C(O)=C3C(C)C)/C(=C/N[C@@H](C)C(=O)[O-])C(=O)C(O)=C2C(C)C.[Na+].[Na+] (stereo in doubt; (+)-8b)
- Ratio CC50/IC50 [1]: 17.59
- pIC50 [2]: 5.38
- CC50 at 72 h [3]: 72.6 µM

SMILES: Cc1cc2c(c(O)c1-c1c(C)cc3c(c1O)/C(=C/N[C@H](C(=O)[O-])C(C)C)C(=O)C(O)=C3C(C)C)/C(=C/N[C@H](C(=O)[O-])C(C)C)C(=O)C(O)=C2C(C)C.[Na+].[Na+] (stereo in doubt; (+)-9b)
- Ratio CC50/IC50 [1]: 10.78
- pIC50 [2]: 5.23
- CC50 at 72 h [3]: 63.8 µM

SMILES: Cc1cc2c(c(O)c1-c1c(C)cc3c(c1O)/C(=C/N[C@@H](CC(C)C)C(=O)[O-])C(=O)C(O)=C3C(C)C)/C(=C/N[C@@H](CC(C)C)C(=O)[O-])C(=O)C(O)=C2C(C)C.[Na+].[Na+] (stereo in doubt; (+)-10b)
- Ratio CC50/IC50 [1]: 8.4
- pIC50 [2]: 5.15
- CC50 at 72 h [3]: 60.1 µM

SMILES: CC[C@H](C)[C@H](N/C=C1\C(=O)C(O)=C(C(C)C)c2cc(C)c(-c3c(C)cc4c(c3O)/C(=C/N[C@H](C(=O)[O-])[C@@H](C)CC)C(=O)C(O)=C4C(C)C)c(O)c21)C(=O)[O-].[Na+].[Na+] (stereo in doubt; (+)-11b)
- Ratio CC50/IC50 [1]: 17.5
- pIC50 [2]: 5.37
- CC50 at 72 h [3]: 73.9 µM

SMILES: Cc1cc2c(c(O)c1-c1c(C)cc3c(c1O)/C(=C/N[C@@H](Cc1c[nH]c4ccccc14)C(=O)[O-])C(=O)C(O)=C3C(C)C)/C(=C/N[C@@H](Cc1c[nH]c3ccccc13)C(=O)[O-])C(=O)C(O)=C2C(C)C.[Na+].[Na+] (stereo in doubt; (+)-12b)
- Ratio CC50/IC50 [1]: 6.29
- pIC50 [2]: 5.04
- CC50 at 72 h [3]: 57 µM

SMILES: Cc1cc2c(c(O)c1-c1c(C)cc3c(c1O)/C(=C/N[C@@H](Cc1ccccc1)C(=O)[O-])C(=O)C(O)=C3C(C)C)/C(=C/N[C@@H](Cc1ccccc1)C(=O)[O-])C(=O)C(O)=C2C(C)C.[Na+].[Na+] (stereo in doubt; (+)-13b)
- Ratio CC50/IC50 [1]: 6.55
- pIC50 [2, 4]: 5.09
- CC50 at 72 h [3]: 53.8 µM

SMILES: Cc1cc2c(c(O)c1-c1c(C)cc3c(c1O)/C(=C/NC(C)C(=O)NC(Cc1ccccc1)C(=O)[O-])C(=O)C(O)=C3C(C)C)/C(=C/NC(C)C(=O)NC(Cc1ccccc1)C(=O)[O-])C(=O)C(O)=C2C(C)C.[Na+].[Na+] (stereo in doubt; (-)-5a)
- Ratio CC50/IC50 [1]: 20.57
- pIC50 [2]: 5.79
- CC50 (TZM): 33.3 µM

SMILES: Cc1cc2c(c(O)c1-c1c(C)cc3c(c1O)/C(=C/NCC(=O)NCC(=O)NCC(=O)[O-])C(=O)C(O)=C3C(C)C)/C(=C/NCC(=O)NCC(=O)NCC(=O)[O-])C(=O)C(O)=C2C(C)C.[Na+].[Na+] (stereo in doubt; (-)-6a)
- Ratio CC50/IC50 [1]: 31.71
- pIC50 [2]: 5.86
- CC50 (TZM): 43.8 µM

SMILES: Cc1cc2c(c(O)c1-c1c(C)cc3c(c1O)/C(=C/N[C@@H](C)C(=O)[O-])C(=O)C(O)=C3C(C)C)/C(=C/N[C@@H](C)C(=O)[O-])C(=O)C(O)=C2C(C)C.[Na+].[Na+] (stereo in doubt; (-)-8a)
- Ratio CC50/IC50 [1]: 183.29
- pIC50 [2]: 6.46
- CC50 (TZM): 64.2 µM

SMILES: Cc1cc2c(c(O)c1-c1c(C)cc3c(c1O)/C(=C/N[C@H](C(=O)[O-])C(C)C)C(=O)C(O)=C3C(C)C)/C(=C/N[C@H](C(=O)[O-])C(C)C)C(=O)C(O)=C2C(C)C.[Na+].[Na+] (stereo in doubt; (-)-9a)
- Ratio CC50/IC50 [1]: 101.82
- pIC50 [2]: 6.31
- CC50 (TZM): 49.9 µM

SMILES: Cc1cc2c(c(O)c1-c1c(C)cc3c(c1O)/C(=C/N[C@@H](CC(C)C)C(=O)[O-])C(=O)C(O)=C3C(C)C)/C(=C/N[C@@H](CC(C)C)C(=O)[O-])C(=O)C(O)=C2C(C)C.[Na+].[Na+] (stereo in doubt; (-)-10a)
- Ratio CC50/IC50 [1]: 78.41
- pIC50 [2]: 6.17
- CC50 (TZM): 53.3 µM

SMILES: CC[C@H](C)[C@H](N/C=C1\C(=O)C(O)=C(C(C)C)c2cc(C)c(-c3c(C)cc4c(c3O)/C(=C/N[C@H](C(=O)[O-])[C@@H](C)CC)C(=O)C(O)=C4C(C)C)c(O)c21)C(=O)[O-].[Na+].[Na+] (stereo in doubt; (-)-11a)
- Ratio CC50/IC50 [1]: 132.29
- pIC50 [2]: 6.33
- CC50 (TZM): 62.2 µM

SMILES: Cc1cc2c(c(O)c1-c1c(C)cc3c(c1O)/C(=C/N[C@@H](Cc1c[nH]c4ccccc14)C(=O)[O-])C(=O)C(O)=C3C(C)C)/C(=C/N[C@@H](Cc1c[nH]c3ccccc13)C(=O)[O-])C(=O)C(O)=C2C(C)C.[Na+].[Na+] (stereo in doubt; (-)-12a)
- Ratio CC50/IC50 [1]: 44.66
- pIC50 [2]: 5.97
- CC50 (TZM): 48.2 µM

SMILES: Cc1cc2c(c(O)c1-c1c(C)cc3c(c1O)/C(=C/N[C@@H](Cc1ccccc1)C(=O)O)C(=O)C(O)=C3C(C)C)/C(=C/N[C@@H](Cc1ccccc1)C(=O)O)C(=O)C(O)=C2C(C)C (stereo in doubt; (-)-13a)
- selectivity ratio [1]: 5.39
- pIC50 [2]: 5.16
- CC50 (TZM): 37.7 µM
